Results on 21 compounds are retold here after PubChem BioAssay AID256 (DTP/NCI, 2004).

The assay concerns CD2F1 mice, L1210 leukemia ip, survival T/C. Description: NCI In Vivo Anticancer Drug Screen. Data for tumor model L1210 Leukemia (intraperitoneal) in CD2F1 (CDF1) mice. To be noted: higher = longer survival. In short, it runs like this:
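Activity against a transplanted murine tumor was judged by comparing the compound group with a vehicle group. The outcome in the treated animals was divided by that in the controls.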

[1] abbreviates: endpoint: mean survival time, dose: 100.0 mg/kg/injection, schedule: Q04DX003 (ip), vehicle: saline with Tween-80.
Where [2] appears, read: endpoint: mean survival time, dose: 200.0 mg/kg/injection, schedule: Q04DX003 (ip), vehicle: saline with Tween-80.
Where [3] appears, read: endpoint: mean survival time, dose: 400.0 mg/kg/injection, schedule: Q04DX003 (ip), vehicle: saline with Tween-80.
[4] abbreviates: endpoint: mean survival time, dose: 100.0 mg/kg/injection, schedule: Q04DX002 (ip), vehicle: saline with Tween-80.
The mark [5] stands for this setting: endpoint: mean survival time, dose: 200.0 mg/kg/injection, schedule: Q04DX002 (ip), vehicle: saline with Tween-80.
Setting [6] is: endpoint: mean survival time, dose: 400.0 mg/kg/injection, schedule: Q04DX002 (ip), vehicle: saline with Tween-80.
The mark [7] stands for this setting: endpoint: mean survival time, dose: 25.0 mg/kg/injection, schedule: Q04DX003 (ip), vehicle: saline.
Setting [8] is: endpoint: mean survival time, dose: 50.0 mg/kg/injection, schedule: Q04DX003 (ip), vehicle: saline.
Setting [9] is: endpoint: mean survival time, dose: 100.0 mg/kg/injection, schedule: Q04DX003 (ip), vehicle: saline.
Where [10] appears, read: endpoint: mean survival time, dose: 200.0 mg/kg/injection, schedule: Q04DX003 (ip), vehicle: saline.
[11] abbreviates: endpoint: mean survival time, dose: 400.0 mg/kg/injection, schedule: Q04DX003 (ip), vehicle: saline.

“And” between values parts separate entries of the source, which are not always exact repeats. Equal values may be shown once. Inconclusive results and toxic doses are left out.

On to `CC(C)(C)N1CC(C(O)(c2ccccc2)c2ccccc2)C1`, for which the T/C by setting is: (endpoint: mean survival time, dose: 25.0 mg/kg/injection, schedule: Q01DX001 (ip), vehicle: saline with Tween-80) 101 % of control; (endpoint: mean survival time, dose: 50.0 mg/kg/injection, schedule: Q01DX001 (ip), vehicle: saline with Tween-80) 101 % of control.
With `C#CC1(OC(=O)c2ccccc2)CCCCC1`, the T/C is, setting by setting: under setting [1], 98 % of control; under setting [2], 96 % of control; under setting [3], 102 % of control.
In the case of `COc1cccc2c1C(=O)C1=C(C2=O)c2c(O)cc(CO)cc2C(O)C1O` (stereo not drawn), the T/C runs as follows: (endpoint: median survival time, dose: 3.12 mg/kg/injection, schedule: Q01DX005 (ip), vehicle: other) 101 % of control; (endpoint: median survival time, dose: 6.25 mg/kg/injection, schedule: Q01DX005 (ip), vehicle: other) 105 % of control; (endpoint: median survival time, dose: 12.5 mg/kg/injection, schedule: Q01DX005 (ip), vehicle: other) 103 % of control; (endpoint: median survival time, dose: 25.0 mg/kg/injection, schedule: Q01DX005 (ip), vehicle: other) 109 % of control; (endpoint: median survival time, dose: 50.0 mg/kg/injection, schedule: Q01DX005 (ip), vehicle: other) 119 % of control.
As to `COc1ccc(COC(=O)Nc2ccc(Cl)cc2)cc1OC`, the T/C under setting [4] was 96 % of control, the T/C under setting [5] is 100 % of control and the T/C under setting [6] was 112 % of control.
Take `COc1cccc2c1C(=O)c1c(O)c3c(c(O)c1C2=O)C[C@@](O)(C(C)O)C[C@@H]3OC1CC(N)C(O)C(C)O1` (stereo partly drawn): the T/C reads like this: (endpoint: mean survival time, dose: 0.65 mg/kg/injection, schedule: Q01DX009 (ip), vehicle: saline) 112 % of control; (endpoint: mean survival time, dose: 1.08 mg/kg/injection, schedule: Q01DX009 (ip), vehicle: saline) 113 % of control; (endpoint: mean survival time, dose: 3.0 mg/kg/injection, schedule: Q04DX003 (ip), vehicle: saline) 120 % of control; (endpoint: mean survival time, dose: 13.3 mg/kg/injection, schedule: Q01DX009 (ip), vehicle: saline) 96 % of control.
On to `c1ccc(C[N+]23CCN(CC2)CC3)cc1`, for which the T/C reads like this: (endpoint: mean survival time, dose: 12.5 mg/kg/injection, schedule: Q04DX003 (ip), vehicle: saline) 98 % of control; under setting [7], 98 % of control; under setting [8], 101 % of control.
Turning to `O=c1[nH]cc(Br)c(=O)[nH]1`, the T/C by setting is: under setting [4], 101 % of control; under setting [5], 97 % of control; under setting [6], 106 % of control.
Regarding `CCOC(=O)NN=C1CCCC1`, the T/C by setting is: (endpoint: mean survival time, dose: 12.5 mg/kg/injection, schedule: Q01DX009 (ip), vehicle: saline with Tween-80) 88 % of control; (endpoint: mean survival time, dose: 25.0 mg/kg/injection, schedule: Q01DX009 (ip), vehicle: saline with Tween-80) 88 % of control; (endpoint: mean survival time, dose: 50.0 mg/kg/injection, schedule: Q01DX009 (ip), vehicle: saline with Tween-80) 92 % of control.
Take `O=S(=O)(CC(Br)C(Br)CO)c1ccccc1` (stereo not drawn): the T/C was 111 % of control (endpoint: median survival time, dose: 25.0 mg/kg/injection, schedule: Q04DX003 (ip), vehicle: saline with Tween-80); 122 % of control (endpoint: median survival time, dose: 50.0 mg/kg/injection, schedule: Q04DX003 (ip), vehicle: saline with Tween-80); 111 % of control (endpoint: median survival time, dose: 100.0 mg/kg/injection, schedule: Q04DX003 (ip), vehicle: saline with Tween-80); 100 % of control (endpoint: median survival time, dose: 200.0 mg/kg/injection, schedule: Q04DX003 (ip), vehicle: saline with Tween-80).
As for `COc1cccc(C(=O)O)c1C(=O)O`, the T/C (endpoint: mean survival time, dose: 12.5 mg/kg/injection, schedule: Q01DX005 (ip), vehicle: other) was 92 % of control; the T/C (endpoint: mean survival time, dose: 25.0 mg/kg/injection, schedule: Q01DX005 (ip), vehicle: other) is 92 % of control; the T/C (endpoint: mean survival time, dose: 50.0 mg/kg/injection, schedule: Q01DX005 (ip), vehicle: other) is 89 % of control; the T/C (endpoint: mean survival time, dose: 100.0 mg/kg/injection, schedule: Q01DX005 (ip), vehicle: other) is 98 % of control; the T/C (endpoint: mean survival time, dose: 200.0 mg/kg/injection, schedule: Q01DX005 (ip), vehicle: other) is 101 % of control; the T/C (endpoint: mean survival time, dose: 400.0 mg/kg/injection, schedule: Q01DX005 (ip), vehicle: other) is 96 % of control.
With `C=Cc1cnc([N+](=O)[O-])n1C`, the T/C (endpoint: mean survival time, dose: 12.5 mg/kg/injection, schedule: Q01DX009 (ip), vehicle: Klucel (hydroxypropylcellulose) (HPC)) is 103 % of control; the T/C (endpoint: mean survival time, dose: 25.0 mg/kg/injection, schedule: Q01DX009 (ip), vehicle: Klucel (hydroxypropylcellulose) (HPC)) is 101 % of control; the T/C (endpoint: mean survival time, dose: 50.0 mg/kg/injection, schedule: Q01DX009 (ip), vehicle: Klucel (hydroxypropylcellulose) (HPC)) is 101 % of control; the T/C (endpoint: mean survival time, dose: 100.0 mg/kg/injection, schedule: Q01DX009 (ip), vehicle: Klucel (hydroxypropylcellulose) (HPC)) was 103 % of control; the T/C (endpoint: mean survival time, dose: 200.0 mg/kg/injection, schedule: Q01DX009 (ip), vehicle: Klucel (hydroxypropylcellulose) (HPC)) is 101 % of control.
As to `CCCCCCCC/C=C\CCCCCCCC(=O)NCCN1CCCCC1`, the T/C (endpoint: mean survival time, dose: 75.0 mg/kg/injection, schedule: Q01DX001 (ip), vehicle: saline) is 100 % of control; the T/C (endpoint: mean survival time, dose: 150.0 mg/kg/injection, schedule: Q01DX001 (ip), vehicle: saline) is 96 % of control; the T/C (endpoint: mean survival time, dose: 300.0 mg/kg/injection, schedule: Q01DX001 (ip), vehicle: saline) is 96 % of control.
In the case of `O=C1Cc2cccc(=O)c(O)c2C(=O)O1`, the T/C is, setting by setting: under setting [7], 96 % of control; under setting [8], 104 % of control; under setting [9], 94 % of control.
Consider `O=C1NCCCN1O`, for which the T/C is, setting by setting: under setting [9], 104 % of control; under setting [10], 100 % of control; under setting [11], 112 % of control.
For the compound `O=NNc1ccc(Cl)cn1`, the T/C runs as follows: (endpoint: median survival time, dose: 1.5 mg/kg/injection, schedule: Q01DX009 (ip), vehicle: water) 110 % of control; (endpoint: median survival time, dose: 1.56 mg/kg/injection, schedule: Q01DX009 (ip), vehicle: water) 104 % of control; (endpoint: median survival time, dose: 3.0 mg/kg/injection, schedule: Q01DX009 (ip), vehicle: water) 114 % of control; (endpoint: median survival time, dose: 3.12 mg/kg/injection, schedule: Q01DX009 (ip), vehicle: water) 117 % of control; (endpoint: median survival time, dose: 6.0 mg/kg/injection, schedule: Q01DX009 (ip), vehicle: water) 119 % of control; (endpoint: median survival time, dose: 12.5 mg/kg/injection, schedule: Q01DX009 (ip), vehicle: water) 104 % of control. Also, the T/C (endpoint: median survival time, dose: 24.0 mg/kg/injection, schedule: Q01DX009 (ip), vehicle: water) is 107 % of control.
On to `c1ccc([P+](c2ccccc2)(c2ccccc2)C2OCCO2)cc1`, for which the T/C (endpoint: mean survival time, dose: 100.0 mg/kg/injection, schedule: Q01DX001 (ip), vehicle: saline with Tween-80) was 112 % of control.
In the case of `CCCCCCCCCCCCCCCCCC(=O)Nc1ccn(C2OC(CO)C(O)C2O)c(=O)n1` (stereo not drawn), the T/C is 229 % of control and 252 % of control (endpoint: mean survival time, dose: 25.0 mg/kg/injection, schedule: Q04DX002 (ip), vehicle: saline with Tween-80); 271 % of control and 325 % of control (endpoint: mean survival time, dose: 50.0 mg/kg/injection, schedule: Q04DX002 (ip), vehicle: saline with Tween-80); 365 % of control (endpoint: mean survival time, dose: 75.0 mg/kg/injection, schedule: Q04DX002 (ip), vehicle: saline with Tween-80); 273 % of control and 313 % of control under setting [4]; 122 % of control under setting [5]; 110 % of control under setting [6].
For the compound `COC(=O)CCC#N`, the T/C was 96 % of control under setting [9], 91 % of control under setting [10] and 97 % of control under setting [11].
Take `Nc1ncnc2c1c(CO)cn2C1OC(CO)C(O)C1O` (stereo not drawn): the T/C was 109 % of control (endpoint: mean survival time, dose: 25.0 mg/kg/injection, schedule: Q01DX005 (ip), vehicle: distilled water + Tween-80); 117 % of control (endpoint: mean survival time, dose: 50.0 mg/kg/injection, schedule: Q01DX005 (ip), vehicle: distilled water + Tween-80); 113 % of control (endpoint: mean survival time, dose: 100.0 mg/kg/injection, schedule: Q01DX005 (ip), vehicle: distilled water + Tween-80).
In the case of `COC1CC(N)C(O)C(C)O1` (stereo not drawn), the T/C (endpoint: mean survival time, dose: 12.5 mg/kg/injection, schedule: Q01DX009 (ip), vehicle: water) is 103 % of control; the T/C (endpoint: mean survival time, dose: 25.0 mg/kg/injection, schedule: Q01DX009 (ip), vehicle: water) was 101 % of control; the T/C (endpoint: mean survival time, dose: 50.0 mg/kg/injection, schedule: Q01DX009 (ip), vehicle: water) was 107 % of control; the T/C (endpoint: mean survival time, dose: 100.0 mg/kg/injection, schedule: Q01DX009 (ip), vehicle: water) is 105 % of control; the T/C (endpoint: mean survival time, dose: 200.0 mg/kg/injection, schedule: Q01DX009 (ip), vehicle: water) is 92 % of control.
Turning to `COC(=O)Nc1ccc(OS(=O)(=O)N(C)C)cc1`, the T/C is 103 % of control under setting [1], 98 % of control under setting [2] and 103 % of control under setting [3].
